# Reference: patent publication US8962631B2 (Vertex Pharmaceuticals Incorporated, priority 2010, dated 2015)
# Target: T1, full-length ATR (Homo sapiens, UniProt Q13535)
# T1 construct: Assays were carried out at 25° C. in the presence of 5 nM full-length ATR
# Assay: ATR Inhibition Assay (radioactive-phosphate incorporation)
# Format: biochemical
# Conditions: Ki(app); 10 μM ATP, 800 μM target peptide, 5 nM full-length ATR, 25° C.
# Description: Compounds were screened for their ability to inhibit ATR kinase using a radioactive-phosphate incorporation assay. Assays were carried out in a mixture of 50 mM Tris/HCl (pH 7.5), 10 mM MgCl2 and 1 mM DTT. Final substrate concentrations were 10 μM [γ-33P]ATP (3 mCi 33P ATP/mmol ATP, Perkin Elmer) and 800 μM target peptide ([…] (SEQ. ID NO: 1)).
# Assays were carried out at 25° C. in the presence of 5 nM full-length ATR. An assay stock buffer solution was prepared containing all of the reagents listed above, with the exception of ATP and the test compound of interest. 13.5 μL of the stock solution was placed in a 96 well plate followed by addition of 2 μL of DMSO stock containing serial dilutions of the test compound (typically starting from a final concentration of 15 μM with 3-fold serial dilutions) in duplicate (final DMSO concentration 7%). The plate was pre-incubated for 10 minutes at 25° C. and the reaction initiated by addition of 15 μL [γ-33P]ATP (final concentration 10 μM).
# The reaction was stopped after 24 hours by the addition of 30 μL 0.1M phosphoric acid containing 2 mM ATP. A multiscreen phosphocellulose filter 96-well plate (Millipore, Cat no. MAPHN0B50) was pretreated with 100 μL 0.2M phosphoric acid prior to the addition of 45 μL of the stopped assay mixture. The plate was washed with […] 0.2M phosphoric acid. After drying, 100 μL Optiphase ‘SuperMix’ liquid scintillation cocktail (Perkin Elmer) was added to the well prior to scintillation counting (1450 Microbeta Liquid Scintillation Counter, Wallac).
# After removing mean background values for all of the data points, Ki(app) data were calculated from non-linear regression analysis of the initial rate data using the Prism software package (GraphPad Prism version 3.0cx for Macintosh, GraphPad Software, San Diego Calif., USA).
# T1 sequence (Q13535 whole entry): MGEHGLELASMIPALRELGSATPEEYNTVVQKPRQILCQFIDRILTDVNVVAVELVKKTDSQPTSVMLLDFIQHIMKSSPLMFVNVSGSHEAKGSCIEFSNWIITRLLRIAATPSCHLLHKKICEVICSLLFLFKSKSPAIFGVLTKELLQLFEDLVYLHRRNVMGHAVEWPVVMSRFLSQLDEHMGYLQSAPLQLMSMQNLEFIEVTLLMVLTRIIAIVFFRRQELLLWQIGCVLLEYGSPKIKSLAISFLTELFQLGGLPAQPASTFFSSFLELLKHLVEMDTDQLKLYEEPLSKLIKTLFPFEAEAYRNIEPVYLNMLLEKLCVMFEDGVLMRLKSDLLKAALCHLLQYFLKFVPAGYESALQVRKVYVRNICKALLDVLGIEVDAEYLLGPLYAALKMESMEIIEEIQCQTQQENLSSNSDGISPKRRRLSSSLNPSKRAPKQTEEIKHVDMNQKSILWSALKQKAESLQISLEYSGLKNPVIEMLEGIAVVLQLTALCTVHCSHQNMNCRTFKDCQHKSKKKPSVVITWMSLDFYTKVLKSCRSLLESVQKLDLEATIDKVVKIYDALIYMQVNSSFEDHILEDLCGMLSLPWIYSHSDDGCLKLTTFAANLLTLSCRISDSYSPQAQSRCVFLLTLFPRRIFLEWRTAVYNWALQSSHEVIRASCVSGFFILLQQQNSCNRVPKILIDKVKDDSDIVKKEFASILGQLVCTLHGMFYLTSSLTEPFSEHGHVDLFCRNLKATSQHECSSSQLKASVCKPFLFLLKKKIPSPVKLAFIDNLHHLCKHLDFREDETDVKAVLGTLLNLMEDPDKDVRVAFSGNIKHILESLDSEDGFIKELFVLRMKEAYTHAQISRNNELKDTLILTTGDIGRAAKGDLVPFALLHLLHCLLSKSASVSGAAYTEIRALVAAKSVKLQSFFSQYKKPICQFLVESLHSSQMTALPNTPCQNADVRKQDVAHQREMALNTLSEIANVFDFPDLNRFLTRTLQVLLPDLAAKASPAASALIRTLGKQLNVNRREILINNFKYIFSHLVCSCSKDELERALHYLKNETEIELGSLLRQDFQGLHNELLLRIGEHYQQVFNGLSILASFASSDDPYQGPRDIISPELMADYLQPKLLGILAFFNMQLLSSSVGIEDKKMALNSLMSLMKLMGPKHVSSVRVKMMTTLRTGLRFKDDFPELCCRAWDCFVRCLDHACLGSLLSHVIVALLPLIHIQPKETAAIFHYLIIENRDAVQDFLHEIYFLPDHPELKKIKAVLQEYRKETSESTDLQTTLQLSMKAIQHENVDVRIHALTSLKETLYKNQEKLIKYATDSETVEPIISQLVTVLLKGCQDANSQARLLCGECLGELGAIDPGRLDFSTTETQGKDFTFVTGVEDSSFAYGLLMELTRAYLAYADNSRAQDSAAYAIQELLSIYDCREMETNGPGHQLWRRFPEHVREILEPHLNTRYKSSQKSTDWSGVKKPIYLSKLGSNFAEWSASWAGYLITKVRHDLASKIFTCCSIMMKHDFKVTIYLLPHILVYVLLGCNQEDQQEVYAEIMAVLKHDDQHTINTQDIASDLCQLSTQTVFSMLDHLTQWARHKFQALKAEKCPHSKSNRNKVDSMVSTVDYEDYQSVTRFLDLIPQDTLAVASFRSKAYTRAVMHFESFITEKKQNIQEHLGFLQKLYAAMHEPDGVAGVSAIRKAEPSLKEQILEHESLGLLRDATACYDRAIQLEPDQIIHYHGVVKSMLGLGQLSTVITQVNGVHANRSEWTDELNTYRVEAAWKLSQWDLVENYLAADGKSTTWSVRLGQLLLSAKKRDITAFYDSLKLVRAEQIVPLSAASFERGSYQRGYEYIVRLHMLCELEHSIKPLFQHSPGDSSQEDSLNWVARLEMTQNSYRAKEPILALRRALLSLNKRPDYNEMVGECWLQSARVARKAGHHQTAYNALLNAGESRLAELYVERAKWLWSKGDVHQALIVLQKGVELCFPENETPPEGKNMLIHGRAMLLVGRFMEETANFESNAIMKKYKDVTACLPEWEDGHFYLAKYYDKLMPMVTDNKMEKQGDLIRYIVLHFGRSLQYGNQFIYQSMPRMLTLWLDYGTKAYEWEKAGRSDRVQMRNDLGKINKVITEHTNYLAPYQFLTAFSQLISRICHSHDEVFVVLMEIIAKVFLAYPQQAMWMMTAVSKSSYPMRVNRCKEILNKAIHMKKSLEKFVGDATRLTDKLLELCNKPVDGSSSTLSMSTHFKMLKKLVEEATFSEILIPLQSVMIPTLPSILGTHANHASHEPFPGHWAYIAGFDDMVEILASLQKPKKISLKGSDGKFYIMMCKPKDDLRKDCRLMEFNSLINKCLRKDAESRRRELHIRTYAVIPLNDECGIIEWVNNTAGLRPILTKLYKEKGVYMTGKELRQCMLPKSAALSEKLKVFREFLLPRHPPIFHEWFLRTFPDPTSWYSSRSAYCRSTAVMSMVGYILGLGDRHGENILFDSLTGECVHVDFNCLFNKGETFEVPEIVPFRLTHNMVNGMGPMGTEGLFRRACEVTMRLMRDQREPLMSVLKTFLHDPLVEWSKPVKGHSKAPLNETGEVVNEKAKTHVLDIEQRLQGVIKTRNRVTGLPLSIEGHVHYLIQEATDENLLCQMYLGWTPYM
row,Ki,Compound
1,1000 to 8000 nM,"Cc1ccc2nc(-c3nc(C(=O)N(C)CC#N)cnc3N)[nH]c2c1 [II-76, 5-Amino-N-(cyanomethyl)-N-methyl-6-(6-methyl-1H-benzimidazol-2-yl)pyrazine-2-carboxamide]"
2,≤ 500 nM,"Cc1ccc2nc(-c3nc(C(=O)NCCC#N)cnc3N)[nH]c2c1 [II-77, 5-Amino-N-(2-cyanoethyl)-6-(6-methyl-1H-benzimidazol-2-yl)pyrazine-2-carboxamide]"
3,500 to 1000 nM,"C/C=C/c1cnc(N)c(-c2nc3ccc(C)cc3[nH]2)n1 [II-78, 3-(6-Methyl-1H-benzimidazol-2-yl)-5-[(E)-prop-1-enyl]pyrazin-2-amine]"
4,1000 to 8000 nM,"COC/C=C/c1cnc(N)c(-c2nc3ccc(C)cc3[nH]2)n1 [II-80, 5-[(E)-3-Methoxyprop-1-enyl]-3-(6-methyl-1H-benzimidazol-2-yl)pyrazin-2-amine]"
5,500 to 1000 nM,"CC(C)(O)C#Cc1cnc(N)c(C(=O)Nc2ccccc2)n1 [II-81, 3-Amino-6-(3-hydroxy-3-methyl-but-1-ynyl)-N-phenyl-pyrazine-2-carboxamide]"
6,500 to 1000 nM,"Cc1ccc2nc(-c3nc(C#CCO)cnc3N)[nH]c2c1 [II-82, 3-[5-Amino-6-(6-methyl-1H-benzimidazol-2-yl)pyrazin-2-yl]prop-2-yn-1-ol]"
7,500 to 1000 nM,"COCC#Cc1cnc(N)c(-c2nc3ccc(C)cc3[nH]2)n1 [II-83, 5-(3-Methoxyprop-1-ynyl)-3-(6-methyl-1H-benzimidazol-2-yl)pyrazin-2-amine]"
8,1000 to 8000 nM,"Cc1ccc2nc(-c3nc(C#CCN(C)C)cnc3N)[nH]c2c1 [II-84, 5-[3-(Dimethylamino)prop-1-ynyl]-3-(6-methyl-1H-benzimidazol-2-yl)pyrazin-2-amine]"
9,≤ 500 nM,"Cc1ccc2nc(-c3nc(C#CCN4CCS(=O)(=O)CC4)cnc3N)[nH]c2c1 [II-85, 5-[3-(1,1-Dioxo-1,4-thiazinan-4-yl)prop-1-ynyl]-3-(6-methyl-1H-benzimidazol-2-yl)pyrazin-2-amine]"
10,1000 to 8000 nM,"Cc1ccc2nc(-c3nc(C#CCNC(N)=O)cnc3N)[nH]c2c1 [II-86, 3-[5-Amino-6-(6-methyl-1H-benzimidazol-2-yl)pyrazin-2-yl]prop-2-ynylurea]"
11,500 to 1000 nM,"Cc1ccc2nc(-c3nc(C#CCNS(C)(=O)=O)cnc3N)[nH]c2c1 [II-87, N-[3-[5-Amino-6-(6-methyl-1H-benzimidazol-2-yl)pyrazin-2-yl]prop-2-ynyl]methanesulfonamide]"
12,≤ 500 nM,"CC(=O)NCC#Cc1cnc(N)c(-c2nc3ccc(C)cc3[nH]2)n1 [II-88, N-[3-[5-amino-6-(6-methyl-1H-benzimidazol-2-yl)pyrazin-2-yl]prop-2-ynyl]acetamide]"
13,1000 to 8000 nM,"Nc1ncc(C#CCCO)nc1-c1nnc(-c2ccccc2)o1 [II-89, 4-[5-amino-6-(5-phenyl-1,3,4-oxadiazol-2-yl)pyrazin-2-yl]but-3-yn-1-ol]"
14,1000 to 8000 nM,"Nc1ncc(C#CCO)nc1-c1nnc(-c2ccccc2)o1 [II-90, 3-[5-amino-6-(5-phenyl-1,3,4-oxadiazol-2-yl)pyrazin-2-yl]prop-2-yn-1-ol]"
15,≤ 500 nM,"CC(=O)Nc1cnc(N)c(-c2nc3ccccc3[nH]2)n1 [II-91, N-[5-Amino-6-(1H-benzimidazol-2-yl)pyrazin-2-yl]acetamide]"
16,500 to 1000 nM,"Cc1ccc2nc(-c3nc(NC(=O)CC#N)cnc3N)[nH]c2c1 [II-92, N-(5-Amino-6-(6-methyl-1H-benzo[d]imidazol-2-yl)pyrazin-2-yl)-2-cyanoethanamide]"
